Test results as given in patent publication US20260042743A1, “SUBSTITUTED BENZIMIDAZOLES FOR TREATING VIRAL DISEASES” (COUNCIL OF SCIENTIFIC AND INDUSTRIAL RESEARCH, priority 2022, published 2026).

Tested on: SARS-CoV-2
Experiment: cell-based anti-viral assay using Vero E6 cell line, viral RNA by qRT-PCR
Conditions: Vero E6 cells, 48 h; for ΔCt (1 μM) / inhibition at 1 µM: 1 μM compound; for ΔCt (1 μM) / ΔCt (5 μM): increase in Ct vs no-drug control; for ΔCt (5 μM) / inhibition at 5 µM: 5 μM compound; for inhibition at 1 µM / inhibition at 5 µM: Severe acute respiratory syndrome coronavirus 2, Vero C1008, calculated from ΔCt; for inhibition at 1 µM: read-out: % SARS-CoV-2 Inactivation (1 μM); for inhibition at 5 µM: read-out: % SARS-CoV-2 Inactivation (5 μM)

SMILES	ΔCt (1 μM)	ΔCt (5 μM)	inhibition at 1 µM [%]	inhibition at 5 µM [%]
CN(c1cc(C(F)(F)F)cc(C(F)(F)F)c1)c1nc2c(C(F)(F)F)cc(C(F)(F)F)cc2[nH]1 [Example 41, N-(3,5-bis(trifluoromethyl)phenyl)-N-methyl-4,6-bis(trifluoromethyl)-1H-benzo[d]imidazol-2-amine]	3.8	13.4	> 90	> 99.9
FC(F)(F)c1cccc(Nc2nc3c(C(F)(F)F)cccc3[nH]2)c1 [Example 35, 4-(trifluoromethyl)-N-(3-(trifluoromethyl)phenyl)-1H-benzo[d]imidazol-2-amine]	1.7	7.5	< 3	99
Fc1cc2nc(Nc3ccccc3)[nH]c2cc1F [Example 8, 5,6-difluoro-N-phenyl-1H-benzo[d]imidazol-2-amine]	3.1	4.2	90	> 90
CN(c1ccc(C(F)(F)F)cc1)c1nc2cccc(C(F)(F)F)c2[nH]1 [Example 43, N-methyl-7-(trifluoromethyl)-N-(4-(trifluoromethyl)phenyl)-1H-benzo[d]imidazol-2-amine]	1.8	3.6	< 3	> 90
C[C@@H](Nc1nc2c(C(F)(F)F)cc(C(F)(F)F)cc2[nH]1)c1cccc2ccccc12 [Example 19, (R)—N-(1-(naphthalen-1-yl)ethyl)-4,6-bis(trifluoromethyl)-1H-benzo[d]imidazol-2-amine]	1.9	1.9	< 3	< 3
FC(F)(F)c1cc(Nc2nc3c(C(F)(F)F)cc(C(F)(F)F)cc3[nH]2)cc(C(F)(F)F)c1 [Example 1, N-(3,5-bis(trifluoromethyl)phenyl)-4,6-bis(trifluoromethyl)-1H-benzo[d]imidazol-2-amine]	5.7	12	> 95	> 99.9
FC(F)(F)Oc1ccc2nc(Nc3cccc(C(F)(F)F)c3)[nH]c2c1 [Example 30, 6-(trifluoromethoxy)-N-(3-(trifluoromethyl)phenyl)-1H-benzo[d]imidazol-2-amine]	1.1	11.1	< 3	99.9
FC(F)(F)c1cccc(Nc2nc3c(C(F)(F)F)cc(C(F)(F)F)cc3[nH]2)c1 [Example 14, 4,6-bis(trifluoromethyl)-N-(3-(trifluoromethyl)phenyl)-1H-benzo[d]imidazol-2-amine]	7.4	16	99	100
FC(F)(F)c1cc(C(F)(F)F)c2nc(Nc3ccc4ccccc4c3)[nH]c2c1 [Example 17, N-(naphthalen-2-yl)-5,7-bis(trifluoromethyl)-1H-benzo[d]imidazol-2-amine]	3	1.5	90	< 3
CN(c1cccc(C(F)(F)F)c1)c1nc2c(C(F)(F)F)cc(C(F)(F)F)cc2[nH]1 [Example 40, N-methyl-4,6-bis(trifluoromethyl)-N-(3-(trifluoromethyl)phenyl)-1H-benzo[d]imidazol-2-amine]	5	12.2	> 95	> 99.9
FC(F)(F)c1ccc(Nc2nc3c(C(F)(F)F)cccc3[nH]2)cc1 [Example 36, 4-(trifluoromethyl)-N-(4-(trifluoromethyl)phenyl)-1H-benzo[d]imidazol-2-amine]	12	12	> 99.9	> 99.9
Fc1cc2nc(Nc3ccc(C(F)(F)F)cc3)[nH]c2cc1F [Example 12, 5,6-difluoro-N-(4-(trifluoromethyl)phenyl)-1H-benzo[d]imidazol-2-amine]	2.4	3.5	< 3	90
CC(C)Nc1nc2c(C(F)(F)F)cc(C(F)(F)F)cc2[nH]1 [Example 15, N-isopropyl-4,6-bis(trifluoromethyl)-1H-benzo[d]imidazol-2-amine]	3.1	4.2	90	> 90
COc1ccc2nc(Nc3cc(C(F)(F)F)cc(C(F)(F)F)c3)[nH]c2c1 [Example 37, N-(3,5-bis(trifluoromethyl)phenyl)-6-methoxy-1H-benzo[d]imidazol-2-amine]	5	4.3	> 95	> 90
